Measured values taken from US7586022B2, “Transgenic non-human animal model of lung tumorigenesis” (Trustees of Dartmouth College, priority 2006, dated 2009).
Entries after “also recorded” stand apart in the source; their conditions may differ.

Key:
exogenous cyclin E = exogenous cyclin E expression in retrovirally transduced BEAS-2B cells treated with agents; format: cell-based, human; details: treated for 24, 36 and 48 hours
Method: To determine whether other agents could modulate the expression of cyclin E, […], N-(4-hydroxyphenyl)retinamide (4HPR or fenretinide), or other non-classical retinoids for 24, 36 and 48 hours.

[1] = system: BEAS-2B human bronchial epithelial cells; details: cited from earlier work

CC1(C)CC[C@]2(C(=O)O)CC[C@]3(C)[C@H](C(=O)C=C4[C@@]5(C)C=C(C#N)C(=O)C(C)(C)[C@@H]5CC[C@]43C)[C@@H]2C1 [CDDO, 2-cyano-3,12-dioxooleana-1,9-dien-28-oic acid]
exogenous cyclin E expression (exogenous cyclin E): potently repress exogenous cyclin E expression; also recorded: most potently decreased exogenous cyclin E expression, as early as 24 hours after treatment

CC1=C(/C=C/C(C)=C/C=C/C(C)=C/C(=O)O)C(C)(C)CCC1 [RA, All-trans-retinoic acid]
NNK-mediated transformation ([1]; BEAS-2B cells exposed to NNK): antagonizes NNK-mediated transformation by causing G1 arrest | cyclin E expression ([1]; RA treatment): represses cyclin E expression via activation of a proteosomal degradation pathway
